Read-outs that look alike come from different tables or passages of the source.
Tests used:
[1] = target: T1, Recombinant STAT3 protein (STAT3 (G127-I722)) (Homo sapiens, UniProt P40763); assay: STAT3 Fluorescence Polarization (FP) Assay; assay type: binding; settings: probe 5-FAM-GpYLPQTV-NH2 2 nM, 45-minute incubation
T1 construct: Recombinant STAT3 protein (STAT3 (G127-I722))
Procedure, shortened: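 Read-out is fluorescence polarization (mP) after 45 min at room temperature, with IC50 fitted by nonlinear regression against log compound concentration. Mixture: 25 nM STAT3 (G127-I722), 2 nM 5-FAM-GpYLPQTV-NH2 phosphopeptide, 10 mM HEPES pH 7.4 buffer, 1% DMSO.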

[2] = target: T2, Recombinant STAT6 protein (STAT6 (W123-T658)) (Homo sapiens, UniProt P42226); assay: STAT6 Fluorescence Polarization (FP) Assay; assay type: binding; settings: probe 5-FAM-Ap[…]-NH2 2 nM, 45-minute incubation
T2 construct: Recombinant STAT6 protein (STAT6 (W123-T658))
T2 sequence (P42226 123-658): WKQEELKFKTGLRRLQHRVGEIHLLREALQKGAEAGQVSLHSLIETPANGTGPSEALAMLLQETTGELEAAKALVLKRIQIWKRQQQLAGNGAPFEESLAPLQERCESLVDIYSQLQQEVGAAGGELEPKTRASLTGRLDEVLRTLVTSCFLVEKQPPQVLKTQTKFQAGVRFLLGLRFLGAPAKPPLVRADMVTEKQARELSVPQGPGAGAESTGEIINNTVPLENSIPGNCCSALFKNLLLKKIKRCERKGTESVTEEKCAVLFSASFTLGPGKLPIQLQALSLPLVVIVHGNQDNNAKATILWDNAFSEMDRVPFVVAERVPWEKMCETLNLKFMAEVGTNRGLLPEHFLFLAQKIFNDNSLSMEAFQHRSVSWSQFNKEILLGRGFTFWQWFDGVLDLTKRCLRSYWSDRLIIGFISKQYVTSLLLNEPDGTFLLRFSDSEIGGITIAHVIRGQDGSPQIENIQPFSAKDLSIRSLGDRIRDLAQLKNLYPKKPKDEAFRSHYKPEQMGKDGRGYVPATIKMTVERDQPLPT
Procedure, shortened: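 Probe displacement format: serially diluted compounds incubated 45 min at room temperature with 2 nM fluorescent phosphopeptide and 250 nM STAT6 (W123-T658) in pH 7.4 HEPES buffer, 1% DMSO final. Polarization signal plotted against log concentration, IC50 fitted by nonlinear regression.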

[3] = STAT3 (G127-I722) 25 nM, read-out: STAT3 (FP assay IC50 class)
[4] = STAT6 (W123-T658) 250 nM, read-out: STAT6 (FP assay IC50 class)
[5] = STAT3 25 nM, read-out: STAT3 (FP assay IC50)
[6] = STAT6 250 nM, read-out: STAT6 (FP assay IC50)

T1 sequence (P40763 127-722): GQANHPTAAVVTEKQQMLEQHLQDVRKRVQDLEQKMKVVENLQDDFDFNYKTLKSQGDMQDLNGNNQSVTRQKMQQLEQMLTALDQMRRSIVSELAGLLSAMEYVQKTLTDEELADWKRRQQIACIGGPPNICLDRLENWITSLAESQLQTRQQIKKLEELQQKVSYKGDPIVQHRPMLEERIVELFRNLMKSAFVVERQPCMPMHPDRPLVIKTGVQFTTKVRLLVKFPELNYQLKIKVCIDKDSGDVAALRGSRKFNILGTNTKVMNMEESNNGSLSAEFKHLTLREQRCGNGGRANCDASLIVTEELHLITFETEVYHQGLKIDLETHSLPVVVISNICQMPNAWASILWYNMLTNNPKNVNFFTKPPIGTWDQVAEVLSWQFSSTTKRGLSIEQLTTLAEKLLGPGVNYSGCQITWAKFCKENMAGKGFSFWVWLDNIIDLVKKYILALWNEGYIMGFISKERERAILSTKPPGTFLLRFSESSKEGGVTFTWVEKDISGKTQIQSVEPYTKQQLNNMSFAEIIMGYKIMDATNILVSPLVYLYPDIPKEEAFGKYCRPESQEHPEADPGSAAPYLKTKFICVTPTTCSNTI

| Compound | IC50 [1, 3] [µM] | IC50 [2, 4] [µM] | IC50 [1, 5] [µM] | IC50 [2, 6] [µM] |
| --- | --- | --- | --- | --- |
| COC[C@@H]1CCN1c1ccncc1C1CN(C(=O)[C@@H]2CC[C@@H]3CCC[C@H](NC(=O)c4cc5cc(CP(=O)(O)O)ccc5s4)C(=O)N32)C1 [Compound 213, ((2-(((3S,6S,9aS)-3-(3-(4-((S)-2-(methoxymethyl)azetidin-1-yl)pyridin-3-yl)azetidine-1-carbonyl)-5-oxooctahydro-1H-pyrrolo[1,2-a]azepin-6-yl)carbamoyl)benzo[b]thiophen-5-yl)methyl)phosphonic acid] | < 0.1 | 3 to 30 | – | – |
| O=C(N[C@H]1CCCC[C@H]2CC[C@@H](C(=O)N[C@@H]3CCN(c4ccn[nH]4)C3)N2C1=O)c1cc2cc(C(F)P(=O)(O)O)ccc2s1 (stereo partly drawn) [Compound 559, ((2-(((3S,6S,10aS)-3-(((R)-1-(1H-pyrazol-5-yl)pyrrolidin-3-yl)carbamoyl)-5-oxodecahydropyrrolo[1,2-a]azocin-6-yl)carbamoyl)benzo[b]thiophen-5-yl)fluoromethyl)phosphonic acid] | 1 to 10 | 0.3 to 3 | – | – |
| O=C(N[C@H]1CCC[C@H]2CC[C@@H](C(=O)N3CC(c4cccnc4)C3)N2C1=O)c1cc2cc([C@H](F)P(=O)(O)O)ccc2s1 [Compound 870, ((R)-fluoro(2-(((3S,6S,9aS)-5-oxo-3-(3-(pyridin-3-yl)azetidine-1-carbonyl)octahydro-1H-pyrrolo[1,2-a]azepin-6-yl)carbamoyl)benzo [b]thiophen-5-yl)methyl) phosphonic acid] | < 0.1 | 3 to 30 | – | – |
| O=C(N[C@H]1CCCC[C@H]2CC[C@@H](C(=O)N3CC(N4CCS(=O)(=O)CC4)C3)N2C1=O)c1cc2cc(C(F)P(=O)(O)O)ccc2s1 (stereo partly drawn) [Compound 573, ((2-(((3S,6S,10aS)-3-(3-(1,1-dioxidothiomorpholino)azetidine-1-carbonyl)-5-oxodecahydropyrrolo[1,2-a]azocin-6-yl)carbamoyl)benzo[b]thiophen-5-yl)fluoromethyl)phosphonic acid] | 0.1 to 1 | 3 to 30 | – | – |
| O=C(N[C@H]1CCCC[C@H]2CC[C@@H](C(=O)N3Cc4cn(C5CC5)nc4C3)N2C1=O)c1cc2cc(C(F)(F)P(=O)(O)O)ccc2s1 [Compound 794, ((2-(((3S,6S,10aS)-3-(2-cyclopropyl-2,4,5,6-tetrahydropyrrolo[3,4-c]pyrazole-5-carbonyl)-5-oxodecahydropyrrolo [1,2-a]azocin-6-yl)carbamoyl)benzo [b]thiophen-5-yl)difluoromethyl) phosphonic acid] | 0.1 to 1 | 3 to 30 | – | – |
| COc1nn(C)cc1C1CN(C(=O)[C@@H]2CC[C@@H]3CCC[C@H](NC(=O)c4cc5cc(C(F)P(=O)(O)O)ccc5s4)C(=O)N32)C1 (stereo partly drawn) [Compound 714, (fluoro(2-(((3S,6S,9aS)-3-(3-(3-methoxy-1-methyl-1H-pyrazol-4-yl)azetidine-1-carbonyl)-5-oxooctahydro-1H-pyrrolo[1,2-a]azepin-6-yl)carbamoyl)benzo [b]thiophen-5-yl)methyl) phosphonic acid] | 0.1 to 1 | 3 to 30 | – | – |
| COc1cc(F)c(C2CN(C(=O)[C@@H]3CC[C@@H]4CCC[C@H](NC(=O)c5cc6cc(CP(=O)(O)O)ccc6s5)C(=O)N43)C2)cn1 [Compound 556, ((2-(((3S,6S,9aS)-3-(3-(4-fluoro-6-methoxypyridin-3-yl)azetidine-1-carbonyl)-5-oxooctahydro-1H-pyrrolo[1,2-a]azepin-6-yl)carbamoyl)benzo[b]thiophen-5-yl)methyl)phosphonic acid] | 1 to 10 | 3 to 30 | – | – |
| C[C@@]1(O)CC[C@H]2CC[C@@H](C(=O)N3CC(C(=O)N4CCOCC4)C3)N2C(=O)[C@@H](NC(=O)c2cc3cc(C(F)(F)P(=O)(O)O)ccc3s2)C1 [Compound 17, (difluoro(2-(((3S,6S,8R,10aR)-8-hydroxy-8-methyl-3-(3-(morpholine-4-carbonyl)azetidine-1-carbonyl)-5-oxodecahydropyrrolo [1,2-a]azocin-6-yl)carbamoyl)benzo[b]thiophen-5-yl)methyl) phosphonic acid] | – | – | < 0.1 | 3 to 30 |
| CC[C@H]1CC[C@H](NC(=O)c2cc3cc([C@H](F)P(=O)(O)O)ccc3s2)C(=O)N2[C@H](CC[C@H]2C(=O)N2CC(c3cnccc3N3CCC3)C2)C1 [Compound 938, ((R)-(2-(((3S,6S,9S,10aR)-3-(3-(4-(azetidin-1-yl)pyridin-3-yl)azetidine-1-carbonyl)-9-ethyl-5-oxodecahydropyrrolo [1,2-a]azocin-6-yl)carbamoyl)benzo [b]thiophen-5-yl)fluoromethyl) phosphonic acid] | < 0.1 | 0.3 to 3 | – | – |
| O=C(N[C@H]1CCC[C@H]2CC[C@@H](C(=O)N3CC(c4cncnc4N4CCC4)C3)N2C1=O)c1cc2cc([C@H](F)P(=O)(O)O)ccc2s1 (single isomer, unassigned) [Compound 689] | < 0.1 | 0.3 to 3 | – | – |
| CN(C)c1ccncc1C1CN(C(=O)[C@@H]2CC[C@@H]3CCC[C@H](NC(=O)c4cc5cc(CP(=O)(O)O)ccc5s4)C(=O)N32)C1 [Compound 512, ((2-(((3S,6S,9aS)-3-(3-(4-(dimethylamino)pyridin-3-yl)azetidine-1-carbonyl)-5-oxooctahydro-1H-pyrrolo[1,2-a]azepin-6-yl)carbamoyl)benzo[b]thiophen-5-yl)methyl)phosphonic acid] | < 0.1 | 3 to 30 | – | – |
| Cc1ccncc1C1CN(C(=O)[C@@H]2CC[C@@H]3CCC[C@H](NC(=O)c4cc5cc(C(F)(F)P(=O)(O)O)ccc5s4)C(=O)N32)C1 [Compound 783, (difluoro(2-(((3S,6S,9aS)-3-(3-(4-methylpyridin-3-yl)azetidine-1-carbonyl)-5-oxooctahydro-1H-pyrrolo[1,2-a]azepin-6-yl)carbamoyl)benzo [b]thiophen-5-yl)methyl) phosphonic acid] | > 10 | > 30 | – | – |
| N#C[C@@H]1CN(C(=O)[C@@H]2CC[C@@H]3CCCC[C@H](NC(=O)c4cc5cc([C@H](F)P(=O)(O)O)ccc5s4)C(=O)N32)C[C@H]1c1ccccc1 (single isomer, unassigned) [Compound 18, ((2-(((3S,6S,10aS)-3-((3S,4R or 3R,4S)-3-cyano-4-phenylpyrrolidine-1-carbonyl)-5-oxodecahydropyrrolo [1,2-a]azocin-6-yl)carbamoyl)benzo[b]thiophen-5-yl)fluoromethyl) phosphonic acid] | – | – | 1 to 10 | ≤ 0.3 |
| O=C(N[C@H]1CCC[C@H]2CC[C@@H](C(=O)N3CC(c4ccccn4)C3)N2C1=O)c1cc2cc(C(F)(F)P(=O)(O)O)ccc2s1 [Compound 108, (difluoro(2-(((3S,6S,9aS)-5-oxo-3-(3-(pyridin-2-yl)azetidine-1-carbonyl)octahydro-1H-pyrrolo[1,2-a]azepin-6-yl)carbamoyl)benzo[b]thiophen-5-yl)methyl) phosphonic acid] | – | – | < 0.1 | 0.3 to 3 |
| Cc1ccnnc1C1CN(C(=O)[C@@H]2CC[C@@H]3CCC[C@H](NC(=O)c4cc5cc(C(F)(F)P(=O)(O)O)ccc5s4)C(=O)N32)C1 [Compound 818, (difluoro(2-(((3S,6S,9aS)-3-(3-(4-methylpyridazin-3-yl)azetidine-1-carbonyl)-5-oxooctahydro-1H-pyrrolo[1,2-a]azepin-6-yl)carbamoyl)benzo [b]thiophen-5-yl)methyl) phosphonic acid] | 0.1 to 1 | 3 to 30 | – | – |
| O=C(N[C@H]1CCC[C@H]2CC[C@@H](C(=O)N3CC(C4=CCCOC4)C3)N2C1=O)c1cc2cc(CP(=O)(O)O)ccc2s1 [Compound 672, ((2-(((3S,6S,9aS)-3-(3-(5,6-dihydro-2H-pyran-3-yl)azetidine-1-carbonyl)-5-oxooctahydro-1H-pyrrolo[1,2-a]azepin-6-yl)carbamoyl)benzo [b]thiophen-5-yl)methyl) phosphonic acid] | 1 to 10 | 3 to 30 | – | – |
| N#C[C@@H]1CN(C(=O)[C@@H]2C[C@@H](O)[C@@H]3CCCCC[C@H](NC(=O)c4cc5cc(C(F)P(=O)(O)O)ccc5s4)C(=O)N23)C[C@H]1c1ccccc1 (relative stereo) [Compound 553, ((2-(((1R,3S,6S,11aS)-3-((rel-trans)-3-cyano-4-phenylpyrrolidine-1-carbonyl)-1-hydroxy-5-oxodecahydro-1H-pyrrolo[1,2-a]azonin-6-yl)carbamoyl)benzo[b]thiophen-5-yl)fluoromethyl)phosphonic acid] | 1 to 10 | 0.3 to 3 | – | – |

From US20250215029A1 (Recludix Pharma, Inc., priority 2022, published 2025)
